Results published in PubChem BioAssay (NCI).
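Briefly, cells in 96-well plates were exposed to five compound concentrations for 48 h, and endpoints were estimated by linear interpolation. GI50: concentration for 50% inhibition of growth. TGI is the concentration that stops growth completely.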

Experiments:
Assay in all cases: NCI anticancer screen, dose series, 48 h
[1] = test system: A549 NSCLC
[2] = test system: HT29 colon
[3] = test system: LOX IMVI melanoma
[4] = test system: M14 melanoma
[5] = test system: NCI-H460 lung
[6] = test system: OVCAR-4 ovarian
[7] = test system: RXF 393 renal
[8] = test system: UACC-257 melanoma
[9] = test system: UO-31 renal
[10] = test system: BT-549 breast

SMILES	TGI [1] [µM]	TGI [2] [µM]	TGI [3] [µM]	TGI [4] [µM]	TGI [5] [µM]	TGI [6] [µM]	TGI [7] [µM]	TGI [8] [µM]	TGI [9] [µM]	GI50 [1] [µM]	GI50 [10] [µM]	TGI [10] [µM]	GI50 [2] [µM]	GI50 [3] [µM]	GI50 [4] [µM]	GI50 [5] [µM]	GI50 [6] [µM]	GI50 [8] [µM]	GI50 [9] [µM]	GI50 [7] [µM]
COc1ccccc1NC(=O)C1=C(C)NC(C)=C(C(=O)Nc2ccccc2OC)C1c1cccc2ccccc12	> 100	> 100	> 100	> 100	> 100	41.5	> 100	> 100	> 100											
CCOC(=O)C(=O)Nc1ccccc1OCC	> 100	> 100	> 100	> 100	> 100	> 100	> 100	> 100	> 100											
CC(C)C[CH2][Ge]([CH2]CC(C)C)([CH2]CC(C)C)[CH2]CC(C)C	> 100	> 100	> 100	> 100	> 100	> 100		> 100	> 100	> 100	> 100	> 100	> 100	> 100	> 100	> 100	> 100	> 100	> 100	
O=C(O)c1cn(C2CC2)c2cc(N3CCNCC3)c(F)cc2c1=O	> 100	> 100		> 100	> 100	> 100	> 100	> 100	> 100	> 100	> 100	> 100	> 100		> 100	> 100	> 100	> 100	> 100	> 100
O=C(Oc1ccc2c(-c3ccccc3)c(C(=O)Nc3ccc(Cl)cc3)c(=O)oc2c1)c1ccccc1	> 100	> 100	> 100	> 100	> 100		> 100	> 100	> 100											
Cc1cn([C@H]2C[C@H](O)[C@@H](CO)O2)c(=O)nc1N	> 100	> 100	> 100	> 100	> 100	> 100		> 100	> 100			> 100								
ClC1c2ccccc2C2(c3ccccc3)OOC1(c1ccccc1)O2 (configuration not stated)	3.64	3.69	1.31	2.76	3.13	3.08	2.83	3.65	3.06											
COc1ccc2c(c1)C(=O)c1c-2c(N2CCN(C(=O)CNCCN(C)C)CC2)nc2ccccc12	10.1	1.25	3.33	3.52	2.55	16.7		3.7	2.78	2.22	1.75	3.43	0.362	1.71	1.88	1.17	5.62	1.95	1.38	
O=C1CCCC(O)=C1SC1=C(O)CCCC1=O	> 100	> 100	> 100	> 100		> 100	> 100	> 100	> 100											
CN(C)CCNC(=O)c1c2ccccc2cc2ccccc12	> 100	> 100	30.1	30.7	> 100	> 100	99	34.4	> 100											
Nc1c(C(=O)NC23CC4CC(CC(C4)C2)C3)[n+]([O-])c2ccccc2[n+]1[O-]	> 100	> 100	> 100	> 100	> 100	> 100		> 100	> 100											
O=c1ccn(C2(CO)C=C(CO)C(O)C2O)c(=O)[nH]1 (configuration not stated)	> 25.7			> 25.7	> 25.7	> 25.7	> 25.7	> 25.7	> 25.7											
COc1cc(C(=O)O/N=C(\N)Cc2cccc3ccccc23)cc(OC)c1OC	23.8	38.3	16.9		7.81	26	23.9	29.2	19.6	7.67	14.6	29.7	15.7	3.41		2.78	10.6	15.2	5.26	10.7
COc1cnc2c(c1)C(=O)c1c-2n(CCCNCCN2CCOCC2)c(=O)c2cc([N+](=O)[O-])ccc12		1.31	0.216	1.52	1.03	3.44	1.93	13.3			0.286	4.13	0.154	0.0413	0.0689	0.0411	0.334	0.586	0.0523	0.387
O=c1c2c(=NCCN3CCCC3)cc3c(=O)n(CCCN4CCOCC4)c(=O)c4ccc(c(O)n1CCCN1CCOCC1)c2c4-3	3.44	1.04	0.443	1.19	1.08	0.735	0.266	3.76		0.0441	0.917	2.99	< 0.0181	0.192	0.323	0.0791	0.13	0.707		0.104
CC(=O)Nc1ccc(-c2csc(Nc3cccc(-c4csc(-c5ccccc5)n4)c3)n2)cc1	> 50		18.1	> 50	> 50		39.6	> 50	> 50	15.3	22.5	> 50		7.71	20.5	18.8		19	16.7	13.7
CCOC(=O)c1ccccc1SC(C[N+](=O)[O-])c1ccccc1 (configuration not stated)	21.6	5.72	3.51	4.43	39.5	25.5	3.09		7.22	5.18	2.31	5.53	2.55	1.81	2.01	18.6	12.9		2.43	1.64
